# Measurements: EPA's ToxValDB 9.5 (doi:10.2903/j.efsa.2014.3787)
# Tests used:
# Tagia sp. = conditions: for LC50: acute, duration: 14 days, mortality; for NOEC: chronic/long-term, duration: 8 weeks
# Folsomia candida = conditions: chronic/long-term, duration: 28 days
# Hypoaspis aculeifer = conditions: acute, duration: 14 days
# Apis mellifera = conditions: acute, duration: 72 hours, mortality
# Colinus virginianus = conditions: acute, oral
# Coturnix japonica = conditions: reproduction developmental; duration: 6 weeks
# Daphnia magna = conditions: chronic/long-term; duration: 21 days; mobility
# Lepomis macrochirus = conditions: acute; duration: 96 hours; mortality
# Aphidius rhopalosiphi = test: LR50; higher = less toxic; conditions: acute; duration: 48 hours; mortality
# Typhlodromus pyri = test: LR50; higher = less toxic; conditions: chronic/long-term; duration: 7 days; mortality
compound,measurement,setting,value
NS(=O)(=O)c1ccccc1C(=O)O [2-Sulfamoylbenzoic acid],LC50,Tagia sp.,> 1000 mg/kg
same,NOEC,Tagia sp.,1000 mg/kg
CCOc1nc(NC)nc(NC(N)=O)n1 [Ethametsulfuron methyl metabolite (IN-B9161)],NOEC,Folsomia candida,76.9 mg/kg
same,NOEC,Hypoaspis aculeifer,76.9 mg/kg
CCOc1nc(NC)nc(NC(=O)NS(=O)(=O)c2ccccc2C(=O)OC)n1 [Ethametsulfuron-methyl],LD50,Apis mellifera; dermal,4.62 µg/piece
same,LD50,"Apis mellifera; oral, unspecified",40.8 µg/piece
same,LD50,"Colinus virginianus; duration: 5 days, diet",> 1160 mg/kg-day
same,LD50,Colinus virginianus,2250 mg/kg-day
same,NOEC,Coturnix japonica,229 mg/kg-day
same,NOEC,Daphnia magna,4.7 mg/L
same,NOEC,Folsomia candida; reproduction,100 mg/kg
same,NOEC,Hypoaspis aculeifer; reproduction,100 mg/kg
same,LC50,Lepomis macrochirus,> 123 µg/mL
same,LC50,"Oncorhynchus mykiss; acute, duration: 96 hours, mortality",> 126 µg/mL
same,NOEC,"Oncorhynchus mykiss; chronic/long-term, duration: 87 days, growth",5.4 mg/L
same,LOAEL,"Oryctolagus sp.; developmental, development",250 mg/kg-day
same,NOAEL,"Oryctolagus sp.; reproduction developmental, organ weight",250 mg/kg-day
same,LD50,"Rattus norvegicus; acute, oral, mortality",> 5000 mg/kg-day
same,NOAEL,"Rattus norvegicus; chronic, duration: 2 years, clinical chemistry",21 mg/kg-day
same,LC50,Tagia sp.,116 mg/kg
same,NOEC,Tagia sp.; reproduction,27.3 mg/kg
same,LR50,Aphidius rhopalosiphi,> 18.8 g/ha
same,LR50,Typhlodromus pyri,> 11.4 g/ha
CCOc1nc(N)nc(NC(=O)NS(=O)(=O)c2ccccc2C(=O)OC)n1 [N-Demethyl ethametsulfuronmethyl],NOEC,Folsomia candida,50 mg/kg
same,LC50,Tagia sp.,> 100 mg/kg
